These results are taken from article PMC8056227, “Deverra tortuosa (Desf.) DC from Saudi Arabia as a new source of marmin and furanocoumarins derivatives with α-glucosidase, antibacterial and cytotoxic activities” (Heliyon, 2021).

The target of one assay is α-glucosidase. Description: α-Glucosidase inhibitory activity (PNPG substrate). It is filed as biochemical. The settings on record: pH 6.8, 37 °C, 30 min. The procedure: (2013)]. The substrate P-nitrophenyl-α-D-glucopyranoside (PNPG) was used for this experiment. Dimethyl sulfoxide (DMSO) was used to prepare different concentrations of the compounds (10–1000 μM). […] Afterwards, 40 μL of PNPG solution (0.375 mM) prepared in phosphate buffer (pH = 6.8) was added to the mixture and then incubated (37 °C for 30 min). 80 μL of Na2CO3 (0.2 M) prepared in phosphate buffer was added to the mixture. The absorbance was measured at 405 nm, and the measurement was replicated 3 times. The percentage of inhibition (%) reflects the α-glucosidase inhibitory activity and was calculated by formula (I):(I) α-glucosidase inhibition activity (%) = [(Acontrol – Asample)/Acontrol] × 100where Asample is the absorbance (405 nm) in the presence of the isolated compound and Acontrol is the absorbance (405 nm) of the control (A control consists of 20 μL potassium phosphate buffer instead of α-glucosidase solution).

In assay [1] the test system is MCF-7 (breast cancer) cells. Description: MTT cytotoxicity assay, MCF-7. It is filed as cell-based. To be noted: Homo sapiens, MCF7, 72 h, read-out: percentage of inhibition, MCF-7. The protocol: (§1) In the present study, two cancer cell lines were tested: HCT116 (colorectal carcinoma) and MCF-7 (breast cancer) (American Type Culture Collection, USA). Fetal calf serum (FCS: 10 %) and L-glutamine (2 mM) were used to make complete growth medium to conserve the cell lines (RPMI: Roswell Park Memorial Institute, France). Cell lines were incubated at 37 °C under atmosphere conditions of CO2 (5%). All tests were performed when the cells reached 80% confluence, and a trypan blue exclusion assay was used to test the viability of the cell lines ([Louis and Siegel, 2011]).
The cytotoxicity of the isolated compounds against HCT116 (colorectal carcinoma) and MCF-7 (breast cancer) cells was evaluated spectrophotometrically through an MTT assay. The assay was performed in 96-well microtiter plates ([Bekir et al., 2013]). The concentrations of HCT-116 and MCF-7 cells were fixed at 10 × 10^3 and 12 × 10^3 cells/well, respectively. The adherent cells were incubated overnight (37 °C) in a 5% enriched CO2 atmosphere. […] After removing the medium, incubated cells (37 °C) were mixed with 50 μL of MTT solution (3 mg/mL in phosphate-buffered saline, PBS) for 20–40 min. The […] proceeded by adding 80 μL of 100% DMSO. The measurement of the obtained reaction was taken spectrophotometrically at 540 nm. As a positive control, Doxorubicin, a conventional anticancer drug, was used. Cell viability was measured using formula II:II % Inhibition = […]where Abs control is the absorbance measured of the total cell activity as described without any inhibition; Abs blank control is the absorbance of MTT substrate; and Abs sample is the absorbance of each inhibitor compound sample.

In assay [2] the test system is HCT116 (colorectal carcinoma) cells. The assay is described as follows: MTT cytotoxicity assay, HCT116. It is filed as cell-based. The settings on record: Homo sapiens, HCT-116, 72 h, read-out: percentage of inhibition, HCT-116. The procedure: as §1
The cytotoxicity of the isolated compounds against HCT116 (colorectal carcinoma) and MCF-7 (breast cancer) cells was evaluated spectrophotometrically through an MTT assay. The assay was performed in 96-well microtiter plates ([Bekir et al., 2013]). The concentrations of HCT-116 and MCF-7 cells were fixed at 10 × 10^3 and 12 × 10^3 cells/well, respectively. The adherent cells were incubated overnight (37 °C) in a 5% enriched CO2 atmosphere. […] Cell viability was measured using formula II:II % Inhibition = 100∗[(Abs control – Abs blank control)/(Abs sample- Abs blank sample)]where Abs control is the absorbance measured of the total cell activity as described without any inhibition; Abs blank control is the absorbance of MTT substrate; and Abs sample is the absorbance of each inhibitor compound sample.

The subject of assay [3] is Escherichia. coli: ATCC 25922. On the set-up: method as in Tsassi et al., 2010. The settings on record: previous studies on marmin; ref Tsassi et al., 2010; cited from earlier work.
Assay [4] has as its system Salmonella typhimurium: ATCC 14028. Description: Antibacterial well diffusion, S. typhimurium. Also noted: dose or concentration left out as unconfirmed. It is filed as cell-based. An excerpt: (§2) ATCC strains (American Type Culture Collection) were purchased from BD (Becton, Dickinson and Company). These strains were primarily activated in brain heart infusion broth and then grown on nonselective media nutrient agar (NA). A total of 7 bacterial strains (Escherichia. coli: ATCC 25922, Klebsiella pneumonia: ATCC 700603, Proteus mirabilis: ATCC 14153, Salmonella typhimurium: ATCC 14028, Pseudomonas aeruginosa: ATCC 254992, Staphylococcus aureus: ATCC 254996 and Enterococcus faecalis: ATCC 29212) were tested for antibacterial activity.
(§3) The 0.5 Macfarland standards were used to prepare the bacterial inoculum from log phase bacterial growth. Muller-Hinton agar (MHA) media plates were prepared aseptically in a safety cabinet; the medium was used to evaluate antibacterial activity. Sterile cork borer was used to make five wells (6 mm). MHA medium was swabbed with fresh culture (24 h ATCC bacterial strains). […] As a positive control, 15 μg of tetracycline was used and the negative control consists of 50 μL DMSO. The test was conducted with 3 replications. The plates were incubated according to Clinical and Laboratory Standards Institute guidelines ([CLSI 2017]) and the experiments were carried out aerobically at 35–37 °C for 18–20 h. The diameter of the inhibition zone around the wells was measured using a ruler, and the mean and standard deviation were calculated for three readings.

Assay [5] concerns Enterococcus faecalis: ATCC 29212. Description: Antibacterial well diffusion, E. faecalis. Also noted: dose or concentration left out as unconfirmed. The assay is classed as cell-based.
Text: as §2, §3

In assay [6] the test system is Escherichia. coli: ATCC 25922. Description: Antibacterial well diffusion, E. coli. The assay is classed as cell-based. The settings on record: ATCC25922, range stated over 3 compounds and 3 strains. On the set-up: dose or concentration left out as unconfirmed.
Text: as §2
(§4) The 0.5 Macfarland standards were used to prepare the bacterial inoculum from log phase bacterial growth. Muller-Hinton agar (MHA) media plates were prepared aseptically in a safety cabinet; the medium was used to evaluate antibacterial activity. Sterile cork borer was used to make five wells (6 mm). MHA medium was swabbed with fresh culture (24 h ATCC bacterial strains). 50 μL of the tested compounds (0.5 mg/mL) prepared in DMSO were dispensed in the wells. As a positive control, 15 μg of tetracycline was used and the negative control consists of 50 μL DMSO. The test was conducted with 3 replications. The plates were incubated according to Clinical and Laboratory Standards Institute guidelines ([CLSI 2017]) and the experiments were carried out aerobically at 35–37 °C for 18–20 h. The diameter of the inhibition zone around the wells was measured using a ruler, and the mean and standard deviation were calculated for three readings.

In assay [7] the test system is Pseudomonas aeruginosa: ATCC 254992. Description: Antibacterial well diffusion, P. aeruginosa. It is filed as cell-based. On the set-up: dose or concentration left out as unconfirmed. The settings on record: ATCC254992, range stated over 3 compounds and 3 strains.
Text: as §2, §4

The test system of assay [8] is Klebsiella pneumonia: ATCC 700603. Description: Antibacterial well diffusion, K. pneumonia. It is filed as cell-based. Also noted: zone of inhibition: dose or concentration left out as unconfirmed. The settings on record: for antibacterial activity in words, K. pneumonia: 1 mg/mL; for zone of inhibition: Klebsiella pneumoniae, ATCC700603, range stated over 3 compounds and 3 strains.
Text: as §2, §3

Assay [9] has as its system Proteus mirabilis: ATCC 14153. Description: Antibacterial well diffusion, P. mirabilis. It is filed as cell-based. On the set-up: dose or concentration left out as unconfirmed.
Text: as §2, §3

`C/C(=C\COc1ccc2ccc(=O)oc2c1)CC[C@@H](O)C(C)(C)O` [Compound 1, Marmin] displayed an IC50 against α-glucosidase of 186 ± 8.3 µM. The inhibition at 100 µM in assay [1] was 17.1%; in [2], 41.8%. In assay [3], the “inhibition zone, E. coli (previous studies)” value was 9.5 mm.

Regarding `CC(=CCOc1ccc2ccc(=O)oc2c1)CCC(O)C(C)(C)OC1OC(CO)C(O)C(O)C1O` (stereo not drawn) [Compound 2, Pituranthoside], on α-glucosidase, inhibition was half-maximal at 347 ± 11.2 µM (IC50). In addition, the inhibition at 100 µM was determined as 29.9% in assay [1] and 42.7% in [2]. In addition, the zone of inhibition in assay [4] (Salmonella enterica, read-out: inhibition zone (IZ), S. typhimurium) was found to be 21 mm; in [5] (Enterococcus faecalis, ATCC29212, read-out: inhibition zone (IZ), E. faecalis) it was 22 mm.

At α-glucosidase, `CC(C)=CCOc1c2ccoc2cc2oc(=O)ccc12` [Compound 3, Isoimperatorin] yielded an IC50 of 171 ± 7.6 µM. Besides, the inhibition at 100 µM in assay [1] came to 43.2%. Further, the “antibacterial activity in words, S. typhimurium” value in assay [4] is given as “did not seem to be active”. In addition, the “antibacterial activity in words, E. faecalis” value in [5] is given as “did not seem to be active”. The zone of inhibition in assay [6], in assay [7] and in assay [8] was 6 to 12 mm throughout. In [8], the “antibacterial activity in words, K. pneumonia” value is on record as “did not seem to be active”. The “antibacterial activity in words, P. mirabilis” value in assay [9] is listed as “did not seem to be active”.

`COc1c2ccoc2cc2oc(=O)ccc12` [Compound 4, Bergapten]: in assay [4], the “antibacterial activity in words, S. typhimurium” value is recorded as “did not seem to be active”. Besides, the “antibacterial activity in words, E. faecalis” value in [5] is on record as “did not seem to be active”. In addition, the zone of inhibition in assay [6], in assay [7] and in [8] was 6 to 12 mm in each case. Further, the “antibacterial activity in words, K. pneumonia” value in [8] was “did not seem to be active”. Moreover, the “antibacterial activity in words, P. mirabilis” value in [9] is on record as “did not seem to be active”.

Turning to `COc1c2ccoc2c(OC)c2oc(=O)ccc12` [Compound 5, Isopimpinellin], the inhibition at 100 µM in [1] turned out to be 30.6%. In assay [4], the “antibacterial activity in words, S. typhimurium” value is recorded as “did not seem to be active”. Besides, in assay [5], the “antibacterial activity in words, E. faecalis” value was “did not seem to be active”. Further, the zone of inhibition in assay [6], in assay [7] and in [8] was 6 to 12 mm each time. Moreover, the “antibacterial activity in words, K. pneumonia” value in [8] is “did not seem to be active”. In addition, the “antibacterial activity in words, P. mirabilis” value in assay [9] is reported as “did not seem to be active”.
